# Assay results as given in article PMC7915026, “Sulfaguanidine Hybrid with Some New Pyridine-2-One Derivatives: Design, Synthesis, and Antimicrobial Activity against Multidrug-Resistant Bacteria as Dual DNA Gyrase and DHFR Inhibitors” (Antibiotics, 2021).
# Tests used:
# [1] = tested on: C. albicans (ATCC 10231); assay: Inhibition zone, paper disk/agar diffusion; assay type: cell-based; conditions: Na = no activity
# Text: (§1) The antimicrobial activity performed at the bacteriology laboratory, Botany and Microbiology Department, Faculty of Science, Al-Azhar University, Cairo, Egypt. The inhibition zone (IZ) of the tested derivatives expressed as the diameter (mm) according to the agar plate diffusion method.
# [2] = tested on: F. oxysporum (RCMB 008002); assay: Inhibition zone, paper disk/agar diffusion; assay type: cell-based; conditions: Na = no activity; note: test concentration or dose not given here
# Text: as §1
# [3] = tested on: B. subtilis ATCC 6633; assay: Inhibition zone, paper disk/agar diffusion; note: test concentration or dose not given here; assay type: cell-based; conditions: B. subtilis; Na = no activity
# Text: as §1
# [4] = tested on: P. aeruginosa ATCC 27853; assay: Inhibition zone, paper disk/agar diffusion; assay type: cell-based; conditions: P. aeruginosa; Na = no activity
# Text: as §1
# [5] = tested on: E. faecalis ATCC 29212; assay: Inhibition zone, paper disk/agar diffusion; note: test concentration or dose not given here; assay type: cell-based; conditions: E. faecalis; Na = no activity
# Text: as §1
# [6] = tested on: CD4+ and CD8+ T lymphocytes; assay: In vivo T lymphocyte subsets from peripheral blood, flow cytometry; conditions: mice
# Text: Activation of immune cells as CD4^+ and CD8^+ T cells is one possible mechanism of a drug’s immune stimulus activity. An increase in these cells is thought to be a good indicator of an active immune response to infections. So, our work extended to study the effect of the most promising derivatives (2d, 8, and 11) on T lymphocyte subsets (CD4^+ and CD8^+) from peripheral blood, and determined the relative level in model mice that analyzed by flow cytometry after the period of treating.
# In vitro intracellular killing activities for the most promising six derivatives 2a, 2b, 2d, 3a, 8, and 11 were performed according to reported methods.
# [7] = tested on: spleen and thymus; assay: In vivo immunomodulation: immune organ weight and indexes; conditions: mice
# Text: Both the spleen and thymus have important antibacterial and fungal immune organ responses, and any change in weight, and indexes can reflect the level of immune regulation. Additionally, the relative spleen and thymus indexes are important indices for nonspecific immunity and potential immunomodulatory compounds that increase the spleen and thymus weight. This increase is due to immune cells’ stimulation in the spleen and thymus. […]
# [8] = tested on: E. coli ATCC 25922; assay: Inhibition zone, paper disk/agar diffusion; assay type: cell-based; conditions: E. coli; Na = no activity
# Text: as §1
# [9] = tested on: S. aureus ATCC 29213; assay: Inhibition zone, paper disk/agar diffusion; note: test concentration or dose not given here; assay type: cell-based; conditions: S. aureus; Na = no activity
# Text: as §1
# [10] = tested on: S. typhi ATCC 6539; assay: Inhibition zone, paper disk/agar diffusion; assay type: cell-based; conditions: S. typhi; Na = no activity
# Text: as §1
Compound,Mean Diameter of the Inhibition Zone [1],Mean Diameter of the Inhibition Zone [2],Mean Diameter of the Inhibition Zone [3],Mean Diameter of the Inhibition Zone [4],Mean Diameter of the Inhibition Zone [5],melting point,T cells CD4+ [6],T cells CD8+ [6],Spleen weight [7],Thymus index [7],Thymus weight [7],Mean Diameter of the Inhibition Zone [8],Mean Diameter of the Inhibition Zone [9],Mean Diameter of the Inhibition Zone [10]
"N#Cc1c(N)cc(N)n(-c2ccc(S(=O)(=O)NC(=N)N)cc2)c1=O [Compound 7, N-Carbamimidoyl-4-(4,6-diamino-3-cyano-2-oxopyridin-1(2H)-yl) benzenesulfonamide]",13.0 ± 0.20 mm,no activity,13 ± 0.41 mm,12 ± 0.63 mm,14 ± 0.47 mm,260 °C,–,–,–,–,–,–,–,–
"O=C1O[C@H]([C@@H](O)CO)C(O)=C1O [Vitamin C, vitamin C, reference compound]",–,–,–,–,–,–,76.74 ± 0.7%,19.62 ± 0.21%,260 ± 0.028 mg,0.633 ± 0.06 mg/g,17.2 ± 0.31 mg,–,–,–
"N#C/C(=C\c1ccc(O)cc1)C(=O)Nc1ccc(S(=O)(=O)NC(=N)N)cc1 [Compound 2c, N-(4-(N-Carbamimidoylsulfamoyl)phenyl)-2-cyano-3-(4-hydroxyphenyl) acrylamide]",16 ± 0.52 mm,14 ± 0.5 mm,20 ± 0.38 mm,20 ± 0.42 mm,17 ± 0.37 mm,256 to 258 °C,–,–,–,–,–,19 ± 0.75 mm,21 ± 0.85 mm,17 ± 0.24 mm
"N#Cc1c(N)n(-c2ccc(S(=O)(=O)NC(=N)N)cc2)c(=O)c2c(=N)oc3ccccc3c12 [Compound 12, 4-(2-Amino-1-cyano-5-imino-4-oxo-4H-chromeno[3,4-c]pyridin-3(5H)-yl)-N-cabamimidoylbenzenesulfonamide]",12 ± 0.50 mm,no activity,15 ± 0.45 mm,–,12 ± 0.74 mm,266 to 268 °C,–,–,–,–,–,14 ± 0.21 mm,–,–
"N#Cc1c(-c2ccc(O)cc2)c(C#N)c(=O)n(-c2ccc(S(=O)(=O)NC(=N)N)cc2)c1N [Compound 3c, 4-(6-Amino-3,5-dicyano-4-(4-hydroxyphenyl)-2-oxopyridin-1(2H)-yl)-N-carbamimidoylbenzenesulfonamide]",22 ± 0.19 mm,19 ± 0.55 mm,–,17 ± 0.20 mm,19 ± 0.33 mm,265 to 268 °C,–,–,–,–,–,–,–,20 ± 0.33 mm
